# In article PMC3905599 (Chembiochem : a European journal of chemical biology, 2013):
# What was measured:
# P-glycoprotein = P-glycoprotein (Homo sapiens, UniProt P08183); format: binding; details: for inhibition at 20 μM / inhibition at 10 μM: human, pH 7.5
# human P-gp = human P-gp (Homo sapiens, UniProt P08183); experiment: Calcein-AM efflux; format: cell-based
# P-gp = details: cited from earlier work
# [1] = ongoing Phase III clinical trials; cited from earlier work
# Chain of P-glycoprotein (P08183 whole entry): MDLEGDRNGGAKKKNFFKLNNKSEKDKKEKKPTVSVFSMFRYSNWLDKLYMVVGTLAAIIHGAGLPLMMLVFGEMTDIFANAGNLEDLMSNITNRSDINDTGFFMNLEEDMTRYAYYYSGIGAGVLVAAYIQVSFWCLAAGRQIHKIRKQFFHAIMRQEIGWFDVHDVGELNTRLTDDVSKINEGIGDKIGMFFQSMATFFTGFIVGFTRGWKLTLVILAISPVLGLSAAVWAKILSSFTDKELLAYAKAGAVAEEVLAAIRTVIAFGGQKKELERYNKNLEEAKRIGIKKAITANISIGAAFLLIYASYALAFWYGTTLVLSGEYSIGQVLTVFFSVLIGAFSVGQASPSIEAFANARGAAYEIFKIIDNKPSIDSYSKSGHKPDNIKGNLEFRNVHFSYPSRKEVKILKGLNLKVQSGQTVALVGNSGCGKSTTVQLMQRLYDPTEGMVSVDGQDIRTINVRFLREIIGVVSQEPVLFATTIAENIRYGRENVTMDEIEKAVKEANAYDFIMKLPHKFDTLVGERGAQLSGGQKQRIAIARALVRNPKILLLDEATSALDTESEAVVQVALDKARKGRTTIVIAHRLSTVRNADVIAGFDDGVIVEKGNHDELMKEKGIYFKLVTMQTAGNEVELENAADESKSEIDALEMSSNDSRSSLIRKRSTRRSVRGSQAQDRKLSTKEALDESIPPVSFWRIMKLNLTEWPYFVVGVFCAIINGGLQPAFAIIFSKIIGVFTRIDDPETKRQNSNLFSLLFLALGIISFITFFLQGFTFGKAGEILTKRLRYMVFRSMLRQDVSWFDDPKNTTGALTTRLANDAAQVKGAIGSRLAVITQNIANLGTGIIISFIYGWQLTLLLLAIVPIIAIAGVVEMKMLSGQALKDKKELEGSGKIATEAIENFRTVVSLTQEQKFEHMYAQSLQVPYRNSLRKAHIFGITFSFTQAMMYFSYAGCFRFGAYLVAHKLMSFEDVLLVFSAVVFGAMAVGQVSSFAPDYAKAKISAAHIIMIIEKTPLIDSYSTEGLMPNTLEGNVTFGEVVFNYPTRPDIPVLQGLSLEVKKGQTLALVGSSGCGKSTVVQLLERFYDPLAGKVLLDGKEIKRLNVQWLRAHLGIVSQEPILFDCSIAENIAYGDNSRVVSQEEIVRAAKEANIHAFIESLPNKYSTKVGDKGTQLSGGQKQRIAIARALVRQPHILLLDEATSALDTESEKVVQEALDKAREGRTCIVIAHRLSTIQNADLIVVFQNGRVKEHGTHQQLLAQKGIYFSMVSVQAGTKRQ
# Chain of human P-gp (P08183 whole entry): as above
Structure (SMILES),inhibition at 20 μM (P-glycoprotein),inhibition at 10 μM (P-glycoprotein),other results
"CCOC(=O)c1csc([C@@H](NC(=O)OC(C)(C)C)C(C)C)n1 [Compound 5, (S)-2-(1-tert-Butoxycarbonylamino-2-methylpropyl)thiazole-4-carboxylic acid ethyl ester]",20%,,
"CC(C)[C@H](NC(=O)OC(C)(C)C)c1nc(C(=O)O)cs1 [Compound 6, (S)-2-(1-tert-Butoxycarbonylamino-2-methylpropyl)thiazole-4-carboxylic acid]",< 10%,,
"CCOC(=O)c1csc([C@@H](N)C(C)C)n1 [Compound 7, (S)-2-(1-Amino-2-methylpropyl)thiazole-4-carboxylic acid ethyl ester]",< 10%,,
"CC(C)[C@H](N)c1nc(C(=O)O)cs1 [Compound 8, (S)-2-(1-Amino-2-methylpropyl)thiazole-4-carboxylic acid]",< 10%,,
"CCOC(=O)c1csc([C@@H](NC(=O)c2csc([C@@H](NC(=O)OC(C)(C)C)C(C)C)n2)C(C)C)n1 [Compound 9, (S)-2-(1-{[2-(1-tert-Butoxycarbonylamino-2-methylpropyl)thiazole-4-carbonyl]amino}-(S)-2-methylpropyl)thiazole-4-carboxylic acid ethyl ester]",87%,,IC50 (human P-gp): 20 µM
"CC(C)[C@H](NC(=O)OC(C)(C)C)c1nc(C(=O)N[C@H](c2nc(C(=O)O)cs2)C(C)C)cs1 [Compound 10, (S)-2-(1-{[2-(1-tert-Butoxycarbonylamino-2-methylpropyl)thiazole-4-carbonyl]amino}-(S)-2-methylpropyl)thiazole-4-carboxylic acid]",< 10%,,
"CCOC(=O)c1csc([C@@H](NC(=O)c2csc([C@@H](N)C(C)C)n2)C(C)C)n1 [Compound 11, (S)-2-(1-{[2-(1-Amino-2-methylpropyl)thiazole-4-carbonyl]amino}-(S)-2-methylpropyl)thiazole-4-carboxylic acid ethyl ester]",87%,,
"CC(C)[C@H](N)c1nc(C(=O)N[C@H](c2nc(C(=O)O)cs2)C(C)C)cs1 [Compound 12, (S)-2-(1-{[2-(1-Amino-2-methylpropyl)thiazole-4-carbonyl]amino}-(S)-2-methylpropyl)thiazole-4-carboxylic acid]",23%,,
"CCOC(=O)c1csc([C@@H](NC(=O)c2csc([C@@H](NC(=O)c3csc([C@@H](NC(=O)OC(C)(C)C)C(C)C)n3)C(C)C)n2)C(C)C)n1 [Compound 13, (S)-2-(1-{[2-(1-{[2-(1-tert-Butoxycarbonylamino-2-methylpropyl)thiazole-4-carbonyl]amino}-(S)-2-methylpropyl)thiazole-4-carbonyl]amino}-(S)-2-methylpropyl) thiazole-4-carboxylic acid ethyl ester]",,91%,
"CC(C)[C@H](NC(=O)OC(C)(C)C)c1nc(C(=O)N[C@H](c2nc(C(=O)N[C@H](c3nc(C(=O)O)cs3)C(C)C)cs2)C(C)C)cs1 [Compound 14, (S)-2-(1-{[2-(1-{[2-(1-tert-Butoxycarbonylamino-2-methylpropyl)thiazole-4-carbonyl]amino}-(S)-2-methylpropyl)thiazole-4-carbonyl]amino}-(S)-2-methylpropyl)thiazole-4-carboxylic acid]",,60%,
"CCOC(=O)c1csc([C@@H](NC(=O)c2csc([C@@H](NC(=O)c3csc([C@@H](N)C(C)C)n3)C(C)C)n2)C(C)C)n1 [Compound 15, (S)-2-(1-{[2-(1-{[2-(1-Amino-2-methylpropyl)thiazole-4-carbonyl]amino}-(S)-2-methylpropyl)thiazole-4-carbonyl]amino}-(S)-2-methylpropyl)thiazole-4-carboxylic acid ethyl ester]",,91%,
"CCOC(=O)c1csc([C@@H](NC(=O)c2csc([C@@H](NC(=O)c3csc([C@@H](NC(=O)c4csc([C@@H](NC(=O)OC(C)(C)C)C(C)C)n4)C(C)C)n3)C(C)C)n2)C(C)C)n1 [Compound 18, (S)-2-(1-{[2-(1-{[2-(1-{[2-(1-tert-Butoxycarbonylamino-2-methylpropyl)thiazole-4-carbonyl]amino}-(S)-2-methylpropyl)thiazole-4-carbonyl]amino}-(S)-2-methylpropyl)thiazole-4-carbonyl]amino}-(S)-2-methylpropyl)thiazole-4-carboxylic acid ethyl ester]",,99%,"Decrease of cell based inhibitory activity as compared to homolog 13 (human P-gp; 10 μM, transport assays): 1.6 fold"
"CC(C)[C@@H]1NC(=O)c2csc(n2)[C@H](C(C)C)NC(=O)c2csc(n2)[C@H](C(C)C)NC(=O)c2csc(n2)[C@H](C(C)C)NC(=O)c2csc1n2 [Compound 20, Cyclic Tetramer]",,,"[125I]-IAAP % Inhibition (P-glycoprotein; tested conc. 10 μM, 4-6 nM [125I]-IAAP, High-Five insect cell membranes): 95%"
"COc1ccc(CNC(=O)c2csc([C@@H](NC(=O)c3csc([C@@H](NC(=O)OC(C)(C)C)C(C)C)n3)C(C)C)n2)c(OC)c1 [Compound 23, [1-(4-{1-[4-(2,4-Dimethoxybenzylcarbamoyl)thiazol-2-yl]-(S)-2-methylpropylcarbamoyl}thiazol-2-yl)-(S)-2-methylpropyl]carbamic acid tert-butyl ester]",,95%,
CC(C)[C@@H]1NC(=O)c2c[se]c(n2)[C@H](C(C)C)NC(=O)c2c[se]c(n2)[C@H](C(C)C)NC(=O)c2c[se]c1n2 [QZ59Se-SSS],,,Potency relative to corresponding QZ59Se-RRR isomer (P-gp): four-fold potent
C/C=C/C[C@@H](C)C(=O)[C@H]1C(=O)N[C@@H](C(C)C)C(=O)N(C)CC(=O)N(C)[C@@H](CC(C)C)C(=O)N[C@@H](C(C)C)C(=O)N(C)[C@@H](CC(C)C)C(=O)N[C@@H](C)C(=O)N[C@H](C)C(=O)N(C)[C@@H](CC(C)C)C(=O)N(C)[C@@H](CC(C)C)C(=O)N(C)[C@@H](C(C)C)C(=O)N1C [valspodar],,,Oral bioavailability [1]: very restricted oral bioavailability
